Measured values reported in patent US11053204B2, “Pyrimidinyloxy benzene derivatives as herbicides” (FMC Corporation, priority 2015, dated 2021).

Assays:
Type in all cases: in vivo
[1] = tested on: giant foxtail (Setaria faberii); test: Test A preemergence, visual injury rating; conditions: 0 to 100 scale (0 no effect, 100 complete control)
Outline: (§1)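 Injury scores run from 0, no effect, to 100, complete control, judged by eye against untreated plants roughly 10 days after treatment. Chemicals carried a surfactant in a non-phytotoxic solvent and went onto loam–sand soil preemergence or onto one- to two-leaf seedlings postemergence.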

kochia (Kochia scoparia) [2] = test: Test A preemergence, visual injury rating; conditions: 0 to 100 scale (0 no effect, 100 complete control)
Outline: as §1

[3] = tested on: pigweed (Amaranthus retroflexus); test: Test A preemergence, visual injury rating; conditions: 0 to 100 scale (0 no effect, 100 complete control)
Outline: as §1

[4] = tested on: barnyardgrass (Echinochloa crus-galli); test: Test A preemergence, visual injury rating; conditions: 0 to 100 scale (0 no effect, 100 complete control)
Outline: as §1

[5] = tested on: ragweed (common ragweed, Ambrosia elatior); test: Test A preemergence, visual injury rating; conditions: 0 to 100 scale (0 no effect, 100 complete control)
Outline: as §1

[6] = tested on: Italian ryegrass (Lolium multiflorum); test: Test A preemergence, visual injury rating; conditions: 0 to 100 scale (0 no effect, 100 complete control)
Outline: as §1

[7] = tested on: oat, wild (wild oat Avena fatua); test: Test C postemergence, plant response rating; conditions: for Oat, Wild plant response rating: scale 0 to 100 (0 no effect, 100 complete control)
Outline: (§2)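 After sowing in loam–sand blend or silt loam, pots were sprayed preemergence; separately grown 1- to 4-leaf plants were sprayed postemergence. Following 13 to 15 d under greenhouse conditions, injury was rated visually on a 0 to 100 scale.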

kochia (Kochia scoparia) [8] = test: Test C postemergence, plant response rating; conditions: for Kochia plant response rating: scale 0 to 100 (0 no effect, 100 complete control)
Outline: as §2

[9] = tested on: ragweed (common ragweed, Ambrosia elatior); test: Test C postemergence, plant response rating; conditions: for Ragweed plant response rating: scale 0 to 100 (0 no effect, 100 complete control)
Outline: as §2

[10] = tested on: morningglory (Ipomoea coccinea); test: Test C postemergence, plant response rating; conditions: for Morningglory plant response rating: scale 0 to 100 (0 no effect, 100 complete control)
Outline: as §2

[11] = tested on: velvetleaf (Abutilon theophrasti); test: Test C postemergence, plant response rating; conditions: for Velvetleaf plant response rating: scale 0 to 100 (0 no effect, 100 complete control)
Outline: as §2

[12] = tested on: nutsedge, yellow (yellow nutsedge, Cyperus esculentus); test: Test C postemergence, plant response rating; conditions: for Nutsedge, Yellow plant response rating: scale 0 to 100 (0 no effect, 100 complete control)
Outline: as §2

[13] = tested on: lambsquarters (Chenopodium album); test: Test C postemergence, plant response rating; conditions: for Lambsquarters plant response rating: scale 0 to 100 (0 no effect, 100 complete control)
Outline: as §2

corn (Zea mays) = test: Test C postemergence, plant response rating; conditions: for Corn plant response rating: scale 0 to 100 (0 no effect, 100 complete control)
Outline: as §2

[14] = tested on: crabgrass, large (large crabgrass, Digitaria sanguinalis); test: Test C postemergence, plant response rating; conditions: for Crabgrass, Large plant response rating: scale 0 to 100 (0 no effect, 100 complete control)
Outline: as §2

[15] = tested on: ducksalad (Heteranthera limosa); test: Test B flooded paddy test, plant response rating; conditions: 250 g ai/ha; Flood; scale of 0 to 100 where 0 is no effect and 100 is complete control; 13 to 15 days
Outline: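 Flooded 3 cm over soil; compound into paddy water; depth kept constant. Greenhouse 13–15 d.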

CCCC(=O)c1c(Br)cccc1Oc1ncc(Cl)cn1 [Compound 75]
Foxtail, Giant plant response rating ([1]; 125 g ai/ha): 100
Foxtail, Giant plant response rating ([1]; 500 g ai/ha): 100
Kochia plant response rating (kochia (Kochia scoparia) [2]; 125 g ai/ha): 80
Kochia plant response rating (kochia (Kochia scoparia) [2]; 500 g ai/ha): 100
Pigweed plant response rating ([3]; 125 g ai/ha): 100
Pigweed plant response rating ([3]; 500 g ai/ha): 100
Barnyardgrass plant response rating ([4]; 125 g ai/ha): 100
Barnyardgrass plant response rating ([4]; 500 g ai/ha): 100
Ragweed plant response rating ([5]; 125 g ai/ha): 0
Ragweed plant response rating ([5]; 500 g ai/ha): 10
Ryegrass, Italian plant response rating ([6]; 125 g ai/ha): 80
Ryegrass, Italian plant response rating ([6]; 500 g ai/ha): 100
Plant response rating, Oat, Wild ([7]; 16 g ai/ha, scale 0 to 100): 5
Plant response rating, Oat, Wild ([7]; 31 g ai/ha, scale 0 to 100): 35
Oat, Wild plant response rating ([7]; 62 g ai/ha): 40
Oat, Wild plant response rating ([7]; 125 g ai/ha): 35
Plant response rating, Kochia (kochia (Kochia scoparia) [8]; 16 g ai/ha, scale 0 to 100): 75
Plant response rating, Kochia (kochia (Kochia scoparia) [8]; 31 g ai/ha, scale 0 to 100): 85
Kochia plant response rating (kochia (Kochia scoparia) [8]; 62 g ai/ha): 90
Kochia plant response rating (kochia (Kochia scoparia) [8]; 125 g ai/ha): 98
Plant response rating, Ragweed ([9]; 16 g ai/ha, scale 0 to 100): 5
Plant response rating, Ragweed ([9]; 31 g ai/ha, scale 0 to 100): 10
Ragweed plant response rating ([9]; 62 g ai/ha): 50
Ragweed plant response rating ([9]; 125 g ai/ha): 60
Plant response rating, Morningglory ([10]; 16 g ai/ha, scale 0 to 100): 5
Plant response rating, Morningglory ([10]; 31 g ai/ha, scale 0 to 100): 15
Morningglory plant response rating ([10]; 62 g ai/ha): 20
Morningglory plant response rating ([10]; 125 g ai/ha): 65
Plant response rating, Velvetleaf ([11]; 16 g ai/ha, scale 0 to 100): 30
Plant response rating, Velvetleaf ([11]; 31 g ai/ha, scale 0 to 100): 35
Velvetleaf plant response rating ([11]; 62 g ai/ha): 70
Velvetleaf plant response rating ([11]; 125 g ai/ha): 75
Plant response rating, Nutsedge, Yellow ([12]; 16 g ai/ha, scale 0 to 100): 0
Plant response rating, Nutsedge, Yellow ([12]; 31 g ai/ha, scale 0 to 100): 0
Nutsedge, Yellow plant response rating ([12]; 62 g ai/ha): 0
Nutsedge, Yellow plant response rating ([12]; 125 g ai/ha): 5
Plant response rating, Lambsquarters ([13]; 16 g ai/ha, scale 0 to 100): 50
Plant response rating, Lambsquarters ([13]; 31 g ai/ha, scale 0 to 100): 55
Lambsquarters plant response rating ([13]; 62 g ai/ha): 70
Lambsquarters plant response rating ([13]; 125 g ai/ha): 90
Plant response rating, Corn (corn (Zea mays); 16 g ai/ha, scale 0 to 100): 10
Plant response rating, Corn (corn (Zea mays); 31 g ai/ha, scale 0 to 100): 15
Corn plant response rating (corn (Zea mays); 62 g ai/ha): 15
Corn plant response rating (corn (Zea mays); 125 g ai/ha): 20
Plant response rating, Crabgrass, Large ([14]; 16 g ai/ha, scale 0 to 100): 10
Plant response rating, Crabgrass, Large ([14]; 31 g ai/ha, scale 0 to 100): 10
Crabgrass, Large plant response rating ([14]; 62 g ai/ha): 15
Crabgrass, Large plant response rating ([14]; 125 g ai/ha): 25
Plant response rating, Ducksalad [15]: 95

CCCCC(=O)c1c(Br)cccc1Oc1ncc(Cl)cn1 [Compound 79]
Foxtail, Giant plant response rating ([1]; 125 g ai/ha): 100
Foxtail, Giant plant response rating ([1]; 500 g ai/ha): 100
Kochia plant response rating (kochia (Kochia scoparia) [2]; 125 g ai/ha): 80
Kochia plant response rating (kochia (Kochia scoparia) [2]; 500 g ai/ha): 100
Pigweed plant response rating ([3]; 125 g ai/ha): 100
Pigweed plant response rating ([3]; 500 g ai/ha): 100
Barnyardgrass plant response rating ([4]; 125 g ai/ha): 100
Barnyardgrass plant response rating ([4]; 500 g ai/ha): 100
Ragweed plant response rating ([5]; 125 g ai/ha): 30
Ragweed plant response rating ([5]; 500 g ai/ha): 90
Ryegrass, Italian plant response rating ([6]; 125 g ai/ha): 90
Ryegrass, Italian plant response rating ([6]; 500 g ai/ha): 100
Plant response rating, Oat, Wild ([7]; 16 g ai/ha, scale of 0 to 100): 15
Plant response rating, Oat, Wild ([7]; 31 g ai/ha, scale 0 to 100): 60
Oat, Wild plant response rating ([7]; 62 g ai/ha): 45
Oat, Wild plant response rating ([7]; 125 g ai/ha): 35
Plant response rating, Kochia (kochia (Kochia scoparia) [8]; 16 g ai/ha, scale of 0 to 100): 75
Plant response rating, Kochia (kochia (Kochia scoparia) [8]; 31 g ai/ha, scale 0 to 100): 80
Kochia plant response rating (kochia (Kochia scoparia) [8]; 62 g ai/ha): 90
Kochia plant response rating (kochia (Kochia scoparia) [8]; 125 g ai/ha): 98
Plant response rating, Ragweed ([9]; 16 g ai/ha, scale of 0 to 100): 30
Plant response rating, Ragweed ([9]; 31 g ai/ha, scale 0 to 100): 20
Ragweed plant response rating ([9]; 62 g ai/ha): 75
Ragweed plant response rating ([9]; 125 g ai/ha): 65
Plant response rating, Morningglory ([10]; 16 g ai/ha, scale of 0 to 100): 10
Plant response rating, Morningglory ([10]; 31 g ai/ha, scale 0 to 100): 20
Morningglory plant response rating ([10]; 62 g ai/ha): 30
Morningglory plant response rating ([10]; 125 g ai/ha): 30
Plant response rating, Velvetleaf ([11]; 16 g ai/ha, scale of 0 to 100): 30
Plant response rating, Velvetleaf ([11]; 31 g ai/ha, scale 0 to 100): 75
Velvetleaf plant response rating ([11]; 125 g ai/ha): 90
Plant response rating, Nutsedge, Yellow ([12]; 16 g ai/ha, scale of 0 to 100): 0
Plant response rating, Nutsedge, Yellow ([12]; 31 g ai/ha, scale 0 to 100): 5
Nutsedge, Yellow plant response rating ([12]; 62 g ai/ha): 5
Nutsedge, Yellow plant response rating ([12]; 125 g ai/ha): 5
Plant response rating, Lambsquarters ([13]; 16 g ai/ha, scale of 0 to 100): 75
Plant response rating, Lambsquarters ([13]; 31 g ai/ha, scale 0 to 100): 85
Lambsquarters plant response rating ([13]; 62 g ai/ha): 90
Lambsquarters plant response rating ([13]; 125 g ai/ha): 100
Plant response rating, Corn (corn (Zea mays); 16 g ai/ha, scale of 0 to 100): 15
Plant response rating, Corn (corn (Zea mays); 31 g ai/ha, scale 0 to 100): 25
Corn plant response rating (corn (Zea mays); 62 g ai/ha): 20
Corn plant response rating (corn (Zea mays); 125 g ai/ha): 20
Plant response rating, Crabgrass, Large ([14]; 16 g ai/ha, scale of 0 to 100): 10
Plant response rating, Crabgrass, Large ([14]; 31 g ai/ha, scale 0 to 100): 25
Crabgrass, Large plant response rating ([14]; 62 g ai/ha): 70
Crabgrass, Large plant response rating ([14]; 125 g ai/ha): 65
Plant response rating, Ducksalad [15]: 90
